Source: patent US8217035B2, “Pyrimidine derivatives used as PI-3-kinase inhibitors” (Novartis AG, priority 2006, dated 2012)

Target: PI3 kinase alpha (Homo sapiens, UniProt P42336)
Assay: PI3K ATP depletion assay (Biological Method 1, Assay 3; KinaseGlo luminescence)
Assay type: biochemical
Details: ATP depletion assay, Biological Method 1; read-out: PI3 Kinase Alpha, IC50
Description: The PI3 kinase alpha IC50 values shown in Table 1 were determined according to the ATP depletion assay as disclosed herein in Biological Method 1.
Assay 3: ATP Depletion Assay
Compounds to be tested are dissolved in DMSO and directly distributed into a black 384-well plate at 1.25 μL per well. To start the reaction, 25 μL of 10 nM PI3 kinase and 5 μg/mL 1-alpha-phosphatidylinositol (PI) are added into each well followed by 25 μL of 2 μM ATP. The reaction is performed until approx 50% of the ATP is depleted, and then stopped by the addition of 25 μL of KinaseGlo solution purchased from Promega. The stopped reaction is incubated for 5 minutes and the remaining ATP is then detected via luminescence.

Chain of PI3 kinase alpha (P42336 whole entry): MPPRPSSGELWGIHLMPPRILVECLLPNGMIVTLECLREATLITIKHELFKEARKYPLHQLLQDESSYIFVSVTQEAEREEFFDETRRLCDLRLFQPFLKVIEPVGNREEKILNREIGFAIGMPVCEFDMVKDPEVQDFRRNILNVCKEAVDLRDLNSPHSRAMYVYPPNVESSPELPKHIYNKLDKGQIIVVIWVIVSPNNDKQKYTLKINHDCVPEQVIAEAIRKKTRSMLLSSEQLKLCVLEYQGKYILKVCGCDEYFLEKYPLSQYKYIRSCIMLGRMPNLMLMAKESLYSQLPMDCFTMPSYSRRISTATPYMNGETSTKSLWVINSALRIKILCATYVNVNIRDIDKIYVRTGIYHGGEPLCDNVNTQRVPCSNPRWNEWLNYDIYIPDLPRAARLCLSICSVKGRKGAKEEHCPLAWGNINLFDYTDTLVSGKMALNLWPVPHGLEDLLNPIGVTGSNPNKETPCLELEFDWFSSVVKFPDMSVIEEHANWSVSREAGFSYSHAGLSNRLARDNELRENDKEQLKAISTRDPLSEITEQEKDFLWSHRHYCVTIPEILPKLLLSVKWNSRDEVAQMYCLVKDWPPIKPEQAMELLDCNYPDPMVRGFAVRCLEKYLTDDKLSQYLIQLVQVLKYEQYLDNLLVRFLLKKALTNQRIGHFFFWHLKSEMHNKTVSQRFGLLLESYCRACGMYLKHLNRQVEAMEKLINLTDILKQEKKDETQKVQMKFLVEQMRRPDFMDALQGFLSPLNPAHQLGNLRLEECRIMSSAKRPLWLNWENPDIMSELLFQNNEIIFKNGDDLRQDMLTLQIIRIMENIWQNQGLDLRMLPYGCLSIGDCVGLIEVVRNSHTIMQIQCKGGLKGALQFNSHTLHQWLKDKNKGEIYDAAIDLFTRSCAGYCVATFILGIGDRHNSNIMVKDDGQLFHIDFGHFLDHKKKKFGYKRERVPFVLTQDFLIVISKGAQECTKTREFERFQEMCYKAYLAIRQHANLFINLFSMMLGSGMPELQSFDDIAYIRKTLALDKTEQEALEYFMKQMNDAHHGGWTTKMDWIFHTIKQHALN
Chain of PI3 kinase alpha (P27986 whole entry partner): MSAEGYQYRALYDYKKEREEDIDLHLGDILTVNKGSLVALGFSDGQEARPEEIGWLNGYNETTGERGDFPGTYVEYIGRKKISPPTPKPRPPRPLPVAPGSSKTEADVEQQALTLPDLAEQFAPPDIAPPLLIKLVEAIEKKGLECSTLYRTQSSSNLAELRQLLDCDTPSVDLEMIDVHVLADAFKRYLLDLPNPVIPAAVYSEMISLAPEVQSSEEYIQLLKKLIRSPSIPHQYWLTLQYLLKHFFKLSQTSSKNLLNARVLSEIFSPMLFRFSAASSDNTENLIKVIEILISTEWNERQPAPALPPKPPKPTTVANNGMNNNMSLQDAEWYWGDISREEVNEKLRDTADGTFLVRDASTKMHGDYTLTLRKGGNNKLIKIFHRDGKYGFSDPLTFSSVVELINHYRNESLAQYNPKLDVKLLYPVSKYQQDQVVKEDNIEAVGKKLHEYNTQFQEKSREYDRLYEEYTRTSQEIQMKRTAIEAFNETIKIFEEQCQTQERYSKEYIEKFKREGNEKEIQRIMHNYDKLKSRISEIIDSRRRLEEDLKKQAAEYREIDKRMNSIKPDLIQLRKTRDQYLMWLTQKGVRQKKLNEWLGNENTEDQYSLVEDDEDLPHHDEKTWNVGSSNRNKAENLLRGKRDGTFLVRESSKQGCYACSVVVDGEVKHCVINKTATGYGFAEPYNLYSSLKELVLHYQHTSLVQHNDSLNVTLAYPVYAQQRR

IC50, < 10 µM:
Nc1ccc(-c2nc(N3CCOCC3)ncc2N)cn1 [Compound 259], Nc1cc(C(F)(F)F)c(-c2cc(N3CCOC(CN4CCCC4)C3)nc(N3CCOCC3)n2)cn1 (stereo not drawn) [Compound 220], CC(=O)Nc1ccccc1Nc1cc(-c2ccc(N)nc2)nc(N2CCOCC2)n1 [Compound 353], CC(=O)Nc1cnc(N2CCOCC2)nc1-c1ccc(N)nc1 [Compound 257], Nc1ccc(-c2cc(NC3CCOCC3)nc(N3CCOCC3)n2)cn1 [Compound 374], N#Cc1cc(-c2cc(Nc3cnc4ccccc4c3)nc(N3CCOCC3)n2)cnc1N [Compound 366]

IC50, < 1 µM:
Nc1ccc(-c2cc(Cl)nc(N3CCOCC3)n2)cn1 [Compound 369], Nc1ccc(-c2cc(Sc3ccncc3)nc(N3CCOCC3)n2)cn1 [Compound 294], Nc1cc(C(F)(F)F)c(-c2cc(Nc3ccc(-c4nn[nH]n4)nc3)nc(N3CCOCC3)n2)cn1 [Compound 282], NC(=O)C1CN(c2cc(-c3cnc(N)cc3C(F)(F)F)nc(N3CCOCC3)n2)CCO1 (stereo not drawn) [Compound 320], Nc1ccc(-c2cc(Nc3ccc4cn[nH]c4c3)nc(N3CCOCC3)n2)cn1 [Compound 227], NC(=O)c1ccnc(Nc2cc(-c3ccc(N)nc3)nc(N3CCOCC3)n2)c1 [Compound 348], CC(=O)Nc1cccc(Nc2cc(-c3ccc(N)nc3)nc(N3CCOCC3)n2)c1 [Compound 363], Nc1ncc(-c2cc(C(=O)N3CCNCC3)nc(N3CCOCC3)n2)cn1 [Compound 233], Nc1cc(C(F)(F)F)c(-c2cc(Nc3ccc(OC4CCOCC4)nc3)nc(N3CCOCC3)n2)cn1 [Compound 267], Nc1ccc(-c2cc(Nc3ccc(S(=O)(=O)C(F)(F)F)cc3)nc(N3CCOCC3)n2)cn1 [Compound 358], CCN(CC)C(=O)Cc1csc(Nc2cc(-c3cnc(N)cc3C(F)(F)F)nc(N3CCOCC3)n2)n1 [Compound 218], N#Cc1cccc(Nc2cc(-c3cnc(N)nc3)nc(N3CCOCC3)n2)c1 [Compound 307], CN1CCN(S(=O)(=O)c2cccc(Nc3cc(-c4cnc(N)cc4C(F)(F)F)nc(N4CCOCC4)n3)c2)CC1 [Compound 315], Nc1ncc(-c2cc(C(=O)Nc3cccnc3)nc(N3CCOCC3)n2)cn1 [Compound 231], CC(=O)N1CCC(Oc2ccc(Nc3cc(-c4cnc(N)cc4C(F)(F)F)nc(N4CCOCC4)n3)cn2)CC1 [Compound 262], COc1cccc(CCNc2cc(-c3ccc(N)nc3)nc(N3CCOCC3)n2)c1 [Compound 303], CS(=O)(=O)Nc1cccc(Nc2cc(-c3ccc(N)nc3)nc(N3CCOCC3)n2)c1 [Compound 361], Nc1ncc(-c2cc(N3CCNC(=O)C3)nc(N3CCOCC3)n2)cn1 [Compound 392], Nc1ccc(-c2cc(Sc3ccccn3)nc(N3CCOCC3)n2)cn1 [Compound 295], CN1CCN(c2ccc(Nc3cc(-c4ccc(N)nc4)nc(N4CCOCC4)n3)cn2)CC1 [Compound 300], CN1CCC(Oc2ccc(Nc3cc(-c4ccc(N)nc4)nc(N4CCOCC4)n3)cn2)CC1 [Compound 276], Nc1cc(C(F)(F)F)c(-c2cc(N3CCOC(c4ccccc4)C3)nc(N3CCOCC3)n2)cn1 (stereo not drawn) [Compound 344], Nc1ccc(-c2cc(NC(=O)c3cccnc3)nc(N3CCOCC3)n2)cn1 [Compound 297], Nc1ccc(-c2cc(Nc3ccccc3-n3ccnc3)nc(N3CCOCC3)n2)cn1 [Compound 355], Nc1cc(C(F)(F)F)c(-c2nc(N3CCOCC3)nc(N3CCOCC3)c2Cl)cn1 [Compound 312], Nc1ccc(-c2cc(Nc3cnccc3C(F)(F)F)nc(N3CCOCC3)n2)cn1 [Compound 385], NC(=O)c1cc(-c2cnc(N)nc2)nc(N2CCOCC2)n1 [Compound 229], Nc1ccc(-c2cc(-c3ccc(F)nc3)nc(N3CCOCC3)n2)cn1 [Compound 228]

Same assay, conditions: ATP depletion assay; read-out: PI3 Kinase Alpha, IC50

IC50, < 1 µM:
Nc1ccc(-c2cc(Oc3cccnc3)nc(N3CCOCC3)n2)cn1 [Compound 512], N#Cc1cc(-c2ccc(N)nc2)nc(N2CCOCC2)n1 [Compound 415], Nc1cc(C(F)(F)F)c(-c2cc(O[C@H]3CCN(C(=O)c4ccccc4)C3)nc(N3CCOCC3)n2)cn1 [Compound 532], CN1CCC(Nc2ccc(Nc3cc(-c4ccc(N)nc4)nc(N4CCOCC4)n3)cn2)CC1 [Compound 501], Nc1ncc(-c2cc(Cl)nc(N3CCOCC3)n2)c(N)n1 [Compound 464], Nc1cc(C(F)(F)F)c(-c2cc(Nc3nc(-c4ccccc4)cs3)nc(N3CCOCC3)n2)cn1 [Compound 554], CN(C)c1ccc(-c2cc(-c3ccc(N)nc3)nc(N3CCOCC3)n2)cn1 [Compound 505], CC(C)(C)Nc1cc(-c2cnc(N)nc2)nc(N2CCOCC2)n1 [Compound 16], CN(c1cc(-c2cnc(N)nc2)nc(N2CCOCC2)n1)C1CCCCC1 [Compound 404], CC(C)(C)NS(=O)(=O)c1ccccc1-c1cc(-c2cnc(N)cc2C(F)(F)F)nc(N2CCOCC2)n1 [Compound 544], CC(C)(C)OC(=O)N1CCC(Oc2cc(-c3cnc(N)cc3C(F)(F)F)nc(N3CCOCC3)n2)CC1 [Compound 456], COC(=O)c1cnc(N2CCOCC2)nc1-c1cnc(N)nc1 [Compound 431], N#Cc1cc(-c2cnc(N)nc2C(F)(F)F)nc(N2CCOCC2)n1 [Compound 465], Cc1nc(N)ncc1-c1ccnc(N2CCOCC2)n1 [Compound 478], Nc1ncc(-c2cc(NCC3CCCCC3)nc(N3CCOCC3)n2)cn1 [Compound 406], Nc1ncc(-c2cc(OCCCN3CCOCC3)nc(N3CCOCC3)n2)cn1 [Compound 511], CC(C)(C)OC(=O)CNc1ccc(Nc2cc(-c3cnc(N)cc3C(F)(F)F)nc(N3CCOCC3)n2)cn1 [Compound 491], Nc1cc(C(F)(F)F)c(-c2cc(Nc3ccc(NCC(=O)O)nc3)nc(N3CCOCC3)n2)cn1 [Compound 490], Nc1ccc(-c2cc(NCc3ccncc3)nc(N3CCOCC3)n2)cn1 [Compound 443], Nc1cc(C(F)(F)F)c(-c2cc(N3CCN(c4ccccc4)C(=O)C3)nc(N3CCOCC3)n2)cn1 [Compound 416], CC(=O)N1CC[C@@H](Oc2cc(-c3cnc(N)cc3C(F)(F)F)nc(N3CCOCC3)n2)C1 [Compound 23], Nc1cc(C(F)(F)F)c(-c2cc(N3CCOCC3c3ccc(F)cc3)nc(N3CCOCC3)n2)cn1 (stereo not drawn) [Compound 485]

IC50, < 10 µM:
Nc1ncc(-c2nc(N3CCOCC3)ncc2C(=O)N2CCNC(=O)C2)cn1 [Compound 427], Nc1ncc(-c2nc(N3CCOCC3)ncc2C(=O)N2CCCC2)cn1 [Compound 425], CN(C)CCNC(=O)c1cnc(N2CCOCC2)nc1-c1cnc(N)nc1 [Compound 420], Nc1ncc(-c2nc(N3CCOCC3)ncc2C(=O)NCC2CC2)cn1 [Compound 419]

Test system: A2780 ovarian cancer cells
Assay: Cellular proliferation in A2780 cells, Cell Titer Glo (Biological Method 4)
Assay type: cell-based
Details: Homo sapiens; ovarian cancer cell line A2780
Description: In addition, many of the compounds of Table 1 were tested to determine their inhibitory activity in a cellular proliferation assay according to Biological Method 4.
The ability of the compounds of the invention to inhibit cellular proliferation were determined by using Cell Titer Glo, a commercially available assay from Promega Corporation. A2780 ovarian cancer cells were seeded in TC treated 96-well plates at a density of 1,000 per well in DMEM, 10% FBS, 1% Sodium Pyruvate, and 1% Penicillin Streptomycin for a minimum of 2 hrs prior to addition of compound. For each concentration of test compound, 2 μl (500×) aliquots of compound or 100% DMSO diluted in 500 μl of culture medium for 2× concentration then diluted 1× on the Cells. Cells were incubated for 72 hrs at 37° C., 5% CO2. After the 72 hour incubation, Cell Titer Glo reagent is added to determine number of viable cells remaining after exposure to the compound, and the EC50 value was calculated. The assay was performed according to the manufacturer's instruction (Promega Corporation, Madison, Wis. USA). Each experimental condition was performed in duplicate.

EC50, < 25 µM:
N#Cc1cc(-c2ccc(N)nc2)nc(N2CCOCC2)n1 [Compound 415], Nc1ncc(-c2cc(Cl)nc(N3CCOCC3)n2)c(N)n1 [Compound 464], CC(C)(C)NS(=O)(=O)c1ccccc1-c1cc(-c2cnc(N)cc2C(F)(F)F)nc(N2CCOCC2)n1 [Compound 544], COC(=O)c1cnc(N2CCOCC2)nc1-c1cnc(N)nc1 [Compound 431], Nc1ncc(-c2nc(N3CCOCC3)ncc2C(=O)N2CCNC(=O)C2)cn1 [Compound 427], Cc1nc(N)ncc1-c1ccnc(N2CCOCC2)n1 [Compound 478], Nc1ncc(-c2cc(NCC3CCCCC3)nc(N3CCOCC3)n2)cn1 [Compound 406], CC(C)(C)OC(=O)CNc1ccc(Nc2cc(-c3cnc(N)cc3C(F)(F)F)nc(N3CCOCC3)n2)cn1 [Compound 491], N#Cc1cnc(Nc2cc(-c3cnc(N)nc3C(F)(F)F)nc(N3CCOCC3)n2)s1 [Compound 545]

EC50, < 10 µM:
Nc1ccc(-c2cc(Oc3cccnc3)nc(N3CCOCC3)n2)cn1 [Compound 512], Nc1cc(C(F)(F)F)c(-c2cc(O[C@H]3CCN(C(=O)c4ccccc4)C3)nc(N3CCOCC3)n2)cn1 [Compound 532], CN1CCC(Nc2ccc(Nc3cc(-c4ccc(N)nc4)nc(N4CCOCC4)n3)cn2)CC1 [Compound 501], Nc1cc(C(F)(F)F)c(-c2cc(Nc3nc(-c4ccccc4)cs3)nc(N3CCOCC3)n2)cn1 [Compound 554], CN(C)c1ccc(-c2cc(-c3ccc(N)nc3)nc(N3CCOCC3)n2)cn1 [Compound 505], CN(c1cc(-c2cnc(N)nc2)nc(N2CCOCC2)n1)C1CCCCC1 [Compound 404], CC(C)(C)OC(=O)N1CCC(Oc2cc(-c3cnc(N)cc3C(F)(F)F)nc(N3CCOCC3)n2)CC1 [Compound 456], N#Cc1cc(-c2cnc(N)nc2C(F)(F)F)nc(N2CCOCC2)n1 [Compound 465], Nc1ncc(-c2cc(OCCCN3CCOCC3)nc(N3CCOCC3)n2)cn1 [Compound 511], Nc1ccc(-c2cc(N3CCOCC3)nc(N3CCOCC3)n2)c(F)n1 [Compound 550], Nc1ncc(-c2cc(Nc3cnc4ccccc4c3)nc(N3CCOCC3)n2)c(=O)[nH]1 [Compound 470]

EC50, < 1 µM:
CC(C)(C)Nc1cc(-c2cnc(N)nc2)nc(N2CCOCC2)n1 [Compound 16]

Same assay, conditions: Homo sapiens; ovarian cancer cell line A2780, Biological Method 4

EC50, < 10 µM:
Nc1ccc(-c2cc(Sc3ccncc3)nc(N3CCOCC3)n2)cn1 [Compound 294], NC(=O)C1CN(c2cc(-c3cnc(N)cc3C(F)(F)F)nc(N3CCOCC3)n2)CCO1 (stereo not drawn) [Compound 320], Nc1ccc(-c2cc(Nc3ccc4cn[nH]c4c3)nc(N3CCOCC3)n2)cn1 [Compound 227], CC(=O)Nc1cccc(Nc2cc(-c3ccc(N)nc3)nc(N3CCOCC3)n2)c1 [Compound 363], Nc1ncc(-c2cc(C(=O)N3CCNCC3)nc(N3CCOCC3)n2)cn1 [Compound 233], Nc1cc(C(F)(F)F)c(-c2cc(Nc3ccc(OC4CCOCC4)nc3)nc(N3CCOCC3)n2)cn1 [Compound 267], Nc1ccc(-c2cc(Nc3ccc(S(=O)(=O)C(F)(F)F)cc3)nc(N3CCOCC3)n2)cn1 [Compound 358], CCN(CC)C(=O)Cc1csc(Nc2cc(-c3cnc(N)cc3C(F)(F)F)nc(N3CCOCC3)n2)n1 [Compound 218], N#Cc1cccc(Nc2cc(-c3cnc(N)nc3)nc(N3CCOCC3)n2)c1 [Compound 307], CN1CCN(S(=O)(=O)c2cccc(Nc3cc(-c4cnc(N)cc4C(F)(F)F)nc(N4CCOCC4)n3)c2)CC1 [Compound 315], Nc1ncc(-c2cc(C(=O)Nc3cccnc3)nc(N3CCOCC3)n2)cn1 [Compound 231], CC(=O)N1CCC(Oc2ccc(Nc3cc(-c4cnc(N)cc4C(F)(F)F)nc(N4CCOCC4)n3)cn2)CC1 [Compound 262], COc1cccc(CCNc2cc(-c3ccc(N)nc3)nc(N3CCOCC3)n2)c1 [Compound 303], CS(=O)(=O)Nc1cccc(Nc2cc(-c3ccc(N)nc3)nc(N3CCOCC3)n2)c1 [Compound 361], Nc1ncc(-c2cc(N3CCNC(=O)C3)nc(N3CCOCC3)n2)cn1 [Compound 392], Nc1ccc(-c2cc(Sc3ccccn3)nc(N3CCOCC3)n2)cn1 [Compound 295], CN1CCN(c2ccc(Nc3cc(-c4ccc(N)nc4)nc(N4CCOCC4)n3)cn2)CC1 [Compound 300], CN1CCC(Oc2ccc(Nc3cc(-c4ccc(N)nc4)nc(N4CCOCC4)n3)cn2)CC1 [Compound 276], Nc1cc(C(F)(F)F)c(-c2cc(N3CCOC(c4ccccc4)C3)nc(N3CCOCC3)n2)cn1 (stereo not drawn) [Compound 344]

EC50, < 25 µM:
Nc1ccc(-c2cc(Cl)nc(N3CCOCC3)n2)cn1 [Compound 369], Nc1cc(C(F)(F)F)c(-c2cc(Nc3ccc(-c4nn[nH]n4)nc3)nc(N3CCOCC3)n2)cn1 [Compound 282], Nc1ccc(-c2nc(N3CCOCC3)ncc2N)cn1 [Compound 259], NC(=O)c1ccnc(Nc2cc(-c3ccc(N)nc3)nc(N3CCOCC3)n2)c1 [Compound 348], Nc1cc(C(F)(F)F)c(-c2cc(N3CCOC(CN4CCCC4)C3)nc(N3CCOCC3)n2)cn1 (stereo not drawn) [Compound 220]
